The structures appear in SMILES notation.

In patent US10730905B2, “Substituted heteropentadieno-pyrrolopyrimidine ribonucleosides for therapeutic use” (USTAV ORGANICKE CHEMIE A BIOCHEMIE AV CR, V.V.I., priority 2016, dated 2020) one finds IC50 and melting point data, which are given here for three molecules.

Data set [1] has as its system A549 (human lung adenocarcinoma). The data set is described as follows: MTT cytotoxic test, A549. The format is cell-based. The following applies: A549 cells. From the text:
(§1) MTT test (Nosková V. et al., Neoplasma 2002, 49, 418-425) was used for in vitro evaluation of antitumor activities of newly synthesized compounds on cell lines derived from normal tissues or tumors. Specifically, cell lines K562 (human acute myeloid leukemia); K562-Tax (human acute myeloid leukemia, paclitaxel resistant subline, overexpress multiple drug resistant protein PgP); CEM (T-lymfoblastic leukemia); CEM-DNR-bulk (T-lymfoblastic leukemia, doxorubicin resistant); A549 (human lung adenocarcinoma); HCT116p53 wt (human colorectal cancer, wild-type); HCT116p53−/− (human colorectal cancer, mutant p53) a U2OS (human bone osteosarcoma) were used. Express characteristics, susceptibility profiles of classic antitumor drugs as well as methodology of cytotoxic MTT test have been repeatedly published (Denizot, F.; Lang, R., J. Immunol. Meth. 1986, 89, 271-277; Noskova, V., see above; S̆arek J. et al., J, Med. Chem., 2003).
In general terms: Tetrazolium assays rely on reduction of a dye to a coloured formazan, in cell work by metabolically active cells.

Data set [2] deals with CCRF-CEM (CEM, T-lymfoblastic leukemia). The data set is described as follows: MTT cytotoxic test, CCRF-CEM. It is filed as cell-based. Particulars: Homo sapiens, CCRF-CEM cells.
Excerpt: as §1

The subject of data set [3] is CEM-DNR-bulk (T-lymfoblastic leukemia, doxorubicin resistant). The data set is described as follows: MTT cytotoxic test, CEM-DNR. The format is cell-based. The following applies: Homo sapiens, CEM-DNR cells.
Excerpt: as §1

The subject of data set [4] is HCT116p53 wt (human colorectal cancer, wild-type). The experiment in a line: MTT cytotoxic test, HCT116. The format is cell-based. The following applies: HCT-116, HCT116 cells, p53 wild type.
Excerpt: as §1

The test system of data set [5] is HCT116p53−/− (human colorectal cancer, mutant p53). The experiment in a line: MTT cytotoxic test, HCT116p53. Particulars: HCT116p53 cells (p53 −/−). It is filed as cell-based.
Excerpt: as §1

Data set [6] deals with K562 (human acute myeloid leukemia). The experiment in a line: MTT cytotoxic test, K562. The following applies: K562 cells. It is filed as cell-based.
Excerpt: as §1

Data set [7] has as its system K562-Tax (human acute myeloid leukemia, paclitaxel resistant subline). The experiment in a line: MTT cytotoxic test, K562-TAX. Particulars: K562-TAX cells. The format is cell-based.
Excerpt: as §1

Data set [8] has as its system U2OS (human bone osteosarcoma). The data set is described as follows: MTT cytotoxic test, U2OS. It is filed as cell-based. Particulars: U2OS cells.
Excerpt: as §1

Data set [9] is described as follows: MTT cytotoxic test, MRC-5. It is filed as cell-based. The following applies: MRC-5 cells (normal fibroblasts), MRC-5 normal human fibroblasts.

The term IC50 denotes the midpoint of a concentration-inhibition curve. A low value points to greater potency in that assay. What is called melting point is the temperature of the solid-liquid transition. With `Cn1ccc2c1c1c(N)ncnc1n2[C@@H]1O[C@H](CO)[C@@H](O)[C@H]1O` [Compound 2d, 5-methyl-8-(β-D-ribofuranosyl)-5,8-dihydropyrrolo[2′,3′:4,5]pyrrolo[2,3-d]pyrimidin-4-amine], the melting point was 240 to 245 °C (dec.). For the same molecule, the IC50 in [1] was 25 to 50 µM. The same molecule had an IC50 in data set [2] of 25 to 50 µM. For the same molecule, the IC50 in data set [3] was 25 to 50 µM. In addition, in [4], the concentration for half-maximal inhibition (IC50) was 25 to 50 µM. The IC50 in data set [5] lay in the range of 25 to 50 µM. In [6], this molecule registered an IC50 of 25 to 50 µM. In data set [7], the IC50 is 25 to 50 µM. In addition, the IC50 in data set [8] lay within 25 to 50 µM. The same molecule showed an IC50 in [9] of 25 to 50 µM.
As for `Cn1ccc2c1c1c(-c3ccco3)ncnc1n2[C@@H]1O[C@H](CO)[C@@H](O)[C@H]1O` [Compound 2e, 4-(Furan-2-yl)-5-methyl-8-(β-D-ribofuranosyl)-5,8-dihydropyrrolo[2′,3′:4,5]pyrrolo[2,3-d]pyrimidine], the melting point lay in the range of 245 to 253 °C. The IC50 in [1] is 25 to 50 µM. The same molecule displayed an IC50 in [2] of 25 to 50 µM. In addition, the IC50 in data set [3] fell in the range of 25 to 50 µM. Besides, the IC50 in data set [4] was 25 to 50 µM. In data set [5], this molecule came in with a concentration for half-maximal inhibition (IC50) of 25 to 50 µM. The IC50 in data set [6] lay in the range of 25 to 50 µM. The molecule also gave an IC50 in data set [7] of 25 to 50 µM. The same molecule registered a concentration for half-maximal inhibition (IC50) in data set [8] of 0.9 to 10 µM. The molecule also showed a 50% inhibitory concentration (IC50) in data set [9] of 25 to 50 µM.
Molecule `COc1ncnc2c1c1c(ccn1C)n2[C@@H]1O[C@H](CO)[C@@H](O)[C@H]1O` [Compound 2b, 4-Methoxy-5-methyl-8-(β-D-ribofuranosyl)-5,8-dihydropyrrolo[2′,3′:4,5]pyrrolo[2,3-d]pyrimidine] had a melting point of 231 to 234 °C. In data set [1], this molecule showed an IC50 of 25 to 50 µM. Besides, the concentration for half-maximal inhibition (IC50) in data set [2] was in the range of 0.2 to 0.9 µM. In addition, in data set [3], the IC50 lay within 25 to 50 µM. This molecule also had an IC50 in data set [4] of 0.2 to 0.9 µM. In addition, the IC50 in data set [5] fell in the range of 0.2 to 0.9 µM. In addition, the IC50 in [6] was in the range of 0.2 to 0.9 µM. Besides, in data set [7], the IC50 lay in the range of 25 to 50 µM. This molecule also registered an IC50 in [8] of 0.9 to 10 µM. The IC50 in [9] lay within 25 to 50 µM.
